What was measured:
[1] = test system: Drosophila expressing mutant Htt exon 1; test: Drosophila model of HD, photoreceptor neuron (rhabdomere) survival; assay type: in vivo; settings: 10 μM, treated vs. untreated flies, day 7 after eclosion
Protocol: Compound treatment of Drosophila HD model and efficacy analysis of MIND4 effects on photoreceptor neurons was performed as described (Steffan et al., 2001; Pallos et al., 2008). Drosophila models have been important in the genetic identification of pathological and neuroprotective mechanisms as well as for testing therapeutic candidates in HD (Marsh et al., 2003). In wild type flies, seven rhabdomeres (photoreceptor neurons) are visible in the adult eye, whereas chronic expression of mHTTex1 causes progressive degeneration of these neurons, detected as a reduction of rhabdomere number. Rhabdomeres were counted on day 7 after eclosion in animals treated with varying doses of MIND4. The indicated numbers of flies were scored for each condition (n) with the number of ommatidia scored indicated in parentheses. Trial 1: DMSO=11(449); MIND4 1 μM=3(112); MIND4 10 μM=9(337); […]=9(364). […]
MIND4 was tested for its potential efficacy by monitoring the degeneration of photoreceptor neurons in the eyes of Drosophila expressing expanded repeat HTT exon 1 protein in all neurons beginning during embryogenesis (Steffan et al., 2001). […] Chronic expression of mutant HTT causes progressive degeneration of these neurons, detected as a reduction of rhabdomeres number. Rhabdomeres were counted on day 7 after eclosion in animals treated with varying doses of MIND4. […]

[2] = test system: TNFα; test: TNFα protein in brain of HD mouse model R6/2; assay type: in vivo; settings: R6/2 mice, daily i.p. 50 mg/kg, 4 weeks
Protocol: To assess protein levels, cell extracts were prepared from cells washed with PBS and lysed with buffer containing 2% SDS, Complete EDTA-free Protease Inhibitor Cocktail (Roche) and 1 mM phenylmethylsulfonyl fluoride. To prepare brain extracts for analysis, frozen mouse cortical tissues were homogenized in PBS containing protease inhibitors with an Kontes Pellet Pestle (Kimble/Kontes). They were later sonicated and lysed overnight at 4° C. in 2× volume of lysis buffer containing 2% SDS and protease inhibitors. Protein concentrations in ST14A cell extracts and homogenized cortical tissues were evaluated using a BCA analysis kit and normalized. Samples were prepared in a SDS buffer containing DTT and separated on bis-acrylamide protein gels via electrophoresis and transferred onto a 0.2 μm PVDF membrane). […]
For this animal trial, the well-characterized transgenic R6/2 mouse model of HD was selected, in which severe neurological phenotypes and premature death at age of 12-13 week is conferred by expression of a human HTT exon 1 fragment containing a pathological ˜150Q repeat tract (Mangiarini et al., 1996). […] Body weights were recorded weekly at the same time of day. At 10 weeks of age, mice were sacrificed 2 hrs after the last injection; brains were removed and snap frozen in liquid nitrogen and kept frozen at −80° C. until analyzed. […]

[3] = test system: ARE genes Nqo1, Hmox1, Gclc; test: qPCR of ARE target genes in corticostriatal co-cultures; assay type: cell-based, mouse; settings: 6 hr
Protocol: Primary corticostriatal neuronal co-cultures were prepared from E18 mouse brains as previously described [Kaltenbach, 2010]. Mice were maintained in accordance with Duke University Medical Center Institutional Animal Care and Use Committee guidelines. For 5×-ARE-luciferase reporter assays, neurons were transfected following their isolation (Nucleofector, Lonza) with 2.5 μg Cignal Antioxidant Response Reporter dual luciferase plasmids (Qiagen/SABiosciences) and plated onto pre-established glial beds in 96 well plates. After 4 days in culture at 37° C. under 5% CO2, co-cultures were treated with the indicated compounds for 4 hr or 16 hr then harvested and read for luminescence from firefly and Renilla luciferases according to the Dual Glo luciferase protocol (Promega) using a SpectraMaxL luminometer (Molecular Devices). Each sample was measured in technical triplicate. For quantitative RT-PCR (qPCR) of ARE target genes, corticostriatal co-cultures were prepared as described above and, after 4 days in culture, treated for 6 hr with the indicated compounds followed by RNA harvesting according to the Absolutely RNA miniprep protocol (Agilent Technologies). Purified RNA was converted to cDNA using random hexamers and SuperScript First-Strand RT-PCR Synthesis (Invitrogen). […] Ct values were determined using primer sets against ARE genes Hmox1, Gclc and Nqo1]. […]

Structure (SMILES)	Relative rescue of photoreceptor neurons, Trial 1 [1] [%]	Relative rescue of photoreceptor neurons, Trial 2 [1] [%]	TNFα protein levels in cortical extracts [2]	Expression of ARE genes Nqo1, Hmox1 [3]	Expression of Gcic [3] [fold]
O=[N+]([O-])c1ccc(Sc2nnc(COc3ccccc3)n2-c2ccccc2)c2ncccc12 [MIND4, 5-nitro-8-{[5-(phenoxymethyl)-4-phenyl-4H-1,2,4-triazol-3-yl]thio}quinoline]	22.6	20.7	striking reduction of TNFα		
O=[N+]([O-])c1ccc(Sc2nnc(COc3ccccc3)n2-c2ccccc2)nc1 [MIND4-17]				increased the expression of the canonical ARE genes Nqo1, Hmox1	~2

Reference: patent US9737525B2, “Small molecule activators of NRF2 pathway” (The General Hospital Corporation, priority 2013, dated 2017)
